The target in assay [1] is muscarinic acetylcholine receptors. As to the kind of experiment: 3H-QNB (quinuclidinyl benzilate) displacement, rat cerebral membranes. In kind it is binding. The settings on record: read-out: Displacement of Radiolabeled Liqands IC50 Quinuc Benz.
A further assay deals with rat striatal slices. As to the kind of experiment: 3H-dopamine release from rat striatal slices (superfusion). In kind it is cell-based. To be noted: read-out: % of Nicotine Response 3H-DA Striatum. On the procedure: Measurement of ^3H-dopamine (^3H-DA) release from rat striatal slices was performed according to the method of Sacaan et al., (J. Pharmacol. Comp. Ther 224:224-230 (1995)). Male Sprague-Dawley rats (250-300 g) were decapitated and the striata or olfactory tubercles dissected quickly on a cold glass surface. The tissue was chopped to a thickness of 300 µm with a McIlwain tissue chopper. After chopping again at right angles the tissue was dispersed and incubated for 10 min. at 37°C in oxygenated Kreb's buffer. ^3H-Dopamine (40 Ci/mmol, NEN-Dupont, Boston, Ma) was added (50 nM) and the tissue was incubated for 30 min. in Kreb's buffer containing 10 µM pargyline and 0.5 mM ascorbic acid. Aliquots of the minced tissue were then transferred to chambers of a Brandel Superfusion system in which the tissue was supported on Whatman GF/B filter discs. The tissue was then superfused with buffer at a constant flow rate of 0.3 ml/min by means of a Brandel peristaltic pump. The perfusate was collected in plastic scintillation vials in 3-min fractions, and the radioactivity was estimated by scintillation spectrophotometry. The superfusate for the first 120 min was discarded. […] At the end of the experiment the filter and the tissue were removed, and the radiolabeled neurotransmitter content was estimated after extraction into scintillation fluid. The fractional efflux of radiolabeled neurotransmitter was estimated as the amount of radioactivity in the perfusate fraction relative to the total amount in the tissue.
The results presented in the Table are expressed as the percent fractional release.

For the next assay, the system named is rat hippocampus. The experiment in a line: tissue or blood. In kind it is cell-based. To be noted: read-out: % of Nicotine Response 3H-NE Hippocampus.
For assay [2], the system named is acetylcholine release in the hippocampus. The assay is classed as in vivo, Male Sprague Dawley Rats. The text has this:
Male Sprague Dawley Rats (230-290 g) were anesthetized in a chamber saturated with isofluorane. Once immobilized, the rats were mounted in a Kopf stereotaxic apparatus with the incisor bar set at -3.3 mm (Praxinos and Watson, 1986). A midline incision was made on the skull to expose the underlying fascia. The skull was cleaned with an antibacterial preparation containing iodine and a hole was made in the skull at the following coordinates: AP, -3.5 mm and ML, +2.0 mm (Praxinos and Watson, 1986). A stainless steel guide cannula (Small Parts, Inc., Stillwater, FL) was cut to 2.0 mm length and inserted into the hole. Three additional holes were drilled into the skull surrounding the guide cannula and small machine screws were placed into these holes. The guide cannula and screws were secured by dental cement. A dummy cannula was inserted into the guide cannula to prevent clogging. The animals were removed from the stereotaxic frame and single housed for 3-7 days with free access to food and water.
On the day of the experiment, the rats were briefly anesthetized with isofluorane and the dummy cannulae were removed. A microdialysis cannula containing a Loop type probe with a rigid shaft and molecular weight cut-off of 6000 (ESA Inc, Chelmsfold, MA) of approximately 2 mm in length, was inserted into the guide cannula. Under these conditions, the microdialysis probe extended 2 mm beneath the guide cannula. The animal was placed in plastic bowl (CMA 120; CMA Microdialysis, Acton, MA, USA) with a harness around the neck. The microdialysis probe was connected to a syringe pump through which a salt solution representing the ionic concentration of the cerebrospinal fluid (artificial CSF; 145 mM NaCl; […]; […] and […]; pH 7.4; Moghaddam and Bunney, J. Neurochem, 53, 652-654, 1989) containing 100 nM neostigmine was pumped at a rate of 1.5 µL/min.
Twenty minute fractions were collected and automatically injected via a sample loop and an auto-injector. The on-line microdialysis comprised of the following components: a CMA/100 microsyringe pump connected to a CMA/111 syringe selector. The mobile phase (100 mM disodium hydrogen phosphate; 2.0 mM 1-octane sulfonic acid sodium salt; 0.005% reagent MB (ESA Inc., Chelmeford, MA) pH 8.00 with phosphoric acid) was pumped using a model 580 ESA pump through a polymeric reverse phase column (ACH-3, ESA Inc., […]; 3.2 mmx 15 cm). The effluent from the column was passed through an enzyme reactor containing immobilized acetylcholinesterase and choline oxidase (ACH-SPR, ESA Inc.). The HPLC column and the enzyme reactor were placed in a housing with a constant temperature of 35°C. Acetylcholine and choline in microdialysis samples were converted into hydrogen peroxide which was detected by amperometric oxidation in a ESA model 5041 analytical cell containing a glassy carbon target electrode and a palladium reference electrode. The oxidation potential was 250 mV and the signal was detected by a ESA model 5200 A Coulochem detector. The retention times for choline and acetylcholine under these conditions were 4 and 6 min, respectively. The limit of detection for acetylcholine was less than 100 fmol on column.
On the day of the experiment, 10-12 fractions were collected to establish the baseline acetylcholine release. Following the establishment of baseline, rats were injected with the test compound and samples were collected until the levels of acetylcholine in the dialysate samples returned to baseline levels (3-5 hr). Compounds were typically dissolved in saline and the pH of the solution was adjusted by the addition of NaOH.

Where [3] appears, read: 60 pM 3H-QNB, rat cerebral membranes, no atropine.
The mark [4] stands for this setting: compound tested at 300 µM, relative to nicotine 10µM.
[5] abbreviates: hippocampal acetylcholine, rat microdialysis, nicotine 0.4 mg/kg, lobeline 5.0 mg/kg, first Formula Z compound 40 mg/kg, other doses not given.

pIC50: −log10 of the molar value. Read-outs that look alike come from different tables or passages of the source.

With `CN1CCC[C@H]1COC(=O)CCc1ccc(O)cc1` [1-Methvl-2-pyrrolidinemethyl 3-(4-hydroxyphenyl)propionate], the negative-log IC50 (pIC50) in assay [1] (setting [3]) is < 5.00.

In the case of `CN1CCC[C@H]1COC(=O)CCc1ccccc1` [1-Methyl-2-pyrrolidinemethyl 3-phenylpropionate], in assay [1] (setting [3]), the negative-log IC50 (pIC50) is 5.95.

In the case of `CN1CCCC1CCSc1ccc(O)cc1Cl` (stereo not drawn) [2-[2-(2-Chloro-4-hydroxyphenyl)thioethyl]-1-methylpyrrolidine], the Emax at 300 µM with rat striatal slices (setting [4]) amounted to 800%. Besides, the pIC50 in assay [1] (setting [3]) was 5.48.

In the case of `COc1ccc(SCCC2CCCN2C)cc1F` (stereo not drawn) [2-[2-(3-Fluoro-4-methoxyphenyl)thioethyl]-1-methylpyrrolidine], the Emax at 300 µM in the assay on rat striatal slices (setting [4]) is 21%. Also, the pIC50 in assay [1] (setting [3]) was 5.54.

As to `CN1CCCC1CCSc1ccc(O)cc1` (stereo not drawn) [2-[2-(4-Hydroxyphenyl)thioethyl]-1-methylpyrrolidine], the Emax at 300 µM with rat hippocampus was determined as 32%. In addition, the Emax at 300 µM in the assay with rat striatal slices amounted to 453%. The negative-log IC50 (pIC50) in assay [1] was 5.73. For the same molecule, in assay [2] (setting [5]), the “Duration of Increase Above Baseline” value was determined as 200 min and the “Peak Increase, % of Baseline” value was 2,000 % of Baseline.

On to `CN1[C@@H](CC(=O)c2ccccc2)CCC[C@H]1C[C@H](O)c1ccccc1` [Lobeline], for which, in assay [2] (setting [5]), the “Duration of Increase Above Baseline” value came to 200 min and the “Peak Increase, % of Baseline” value is recorded as 400 % of Baseline.

On to `CN1CCCC1c1cccnc1` (stereo not drawn) [Nicotine, reference compound], for which the Emax at 300 µM in the assay on rat hippocampus worked out at 100%. The Emax at 10 µM in the assay on rat striatal slices was 100%. For the same molecule, in assay [2] (rat, in vivo), the “Duration of Increase Above Baseline” value stood at 200 min and the “Peak Increase, % of Baseline” value is on record as 220 % of Baseline.

For `CNC1(C)C2CCC(C2)C1(C)C` (stereo not drawn) [mecamylamine], the “attenuation of acetylcholine release induced by compound of Formula Z (A = 4-hydroxyphenyl, B = not present, D = -S-, E = -CH2CH2-, G = 1-methylpyrrolidino)” value in assay [2] (rat hippocampus microdialysis, Figure 5) is on record as “attenuation of acetylcholine release”.

For orientation: pIC50 means the negative decadic logarithm of the IC50, by convention in mol/L.

(Values after EP0874818B1, “NOVEL SUBSTITUTED ARYL COMPOUNDS USEFUL AS MODULATORS OF ACETYLCHOLINE RECEPTORS” (priority 1995, dated 1997).)
